# Data taken from patent US20260102407A1, “TREATMENT METHODS” (priority 2020, published 2026).
# Key:
# [1] = system: VEGF-A165; test: Immunohistochemical staining of rat retina, VEGF-A165; type: in vivo
# Text: (§1) Rat choroidal laser injury model. Male Brown Norway pigmented rats (8-14 week-old) were anesthetized by an intramuscular injection of Rompun® (xylazine)/Imalgene® (ketamine). Pupils were dilated by instillation of one drop of 0.5% tropicamide before laser burn. Six burns were created in both eyes on Day 0 by applying 170 mW of 532 nm laser light (Viridis laser, Quantel, France) on 75 μm spots around the optic nerve, between the main retinal vessel branches, for 0.1s, through the slit lamp and contact lens. Production of a bubble at the time of laser application confirmed the rupture of Bruch's membrane. […] After anaesthesia, 10% sodium fluorescein (250 μl/100 g body weight) was injected subcutaneously, and ocular fluorescence was recorded 10 min after dye injection. Fluorescein leakage was evaluated on Days 14 and 21 in the angiograms by two examiners masked to the study groups and graded for fluorescein intensity as follows: score 0: no leakage; 1: slightly stained; 2: moderately stained; 3: strongly stained.
# (§2) Immunohistochemical staining of rat retina. […] IOD of positive staining (red chromogen) was assessed for CD31, VEGF-A165, pERK, FosB and VCAM-1 using Image-Pro Plus software (Cybernetics, Bethesda, MD). IOD in IPL and INL was quantified for CD31; OPL to OS for VEGF-A165; INL to ONL for pERK; GCL to OS for FosB; OLM for VCAM-1, using Image-Pro Plus. […]
# [2] = system: ERK phosphorylation; test: Western blot, IL-1β-inducible ERK phosphorylation in HMEC-1; type: cell-based, human
# Method: Western blot analysis with extracts of cells treated with […]. HMEC-1 (80-90% confluency) were arrested in serum-free MCDB131 medium (Invitrogen, MD) without any growth factor for 48 h. Cells were treated with 30 μM compound in serum-free medium for 4 h, and incubated with 20 ng/ml IL-1β (Sigma, cat. SRE3083) in serum-free medium with the same concentration of compound for up to 4 h, unless otherwise indicated. Total protein was harvested as previously described using RIPA buffer with protease inhibitors. Proteins were resolved on 4-20% (w/v) SDS-polyacrylamide gradient gels and transferred to Immobilon-P PVDF membranes. Membranes were blocked with 5% skim milk and incubated with rabbit monoclonal FosB (cat. 2251S, 1:1000, Cell Signaling, USA), rabbit monoclonal VCAM-1 (cat. 13662S, 1:1000, Cell Signaling, USA), rabbit monoclonal p44/42 MAPK (cat. 4695S, 1:1000, Cell Signaling, USA), rabbit polyclonal p38 MAPK (cat. 9212S, 1:1000, Cell Signaling, USA), rabbit polyclonal SAPK/JNK (cat. 9252S, 1:1000, Cell Signaling, USA), rabbit monoclonal phospho-SAPK/JNK (cat. 4671S, 1:1000, Cell Signaling, USA), rabbit monoclonal phospho-p38 MAPK (cat. 4511S, 1:1000, Cell Signaling, USA), or, mouse monoclonal phospho-p44/42 MAPK antibodies (cat. 9106S, 1:2000, Cell Signaling, USA) at 4° C. overnight or mouse monoclonal β-actin antibodies (cat. A5316, 1:10000, Sigma-Aldrich) antibodies at 22° C. for 1 h. Membranes were then incubated with horseradish peroxidase conjugated secondary goat anti-rabbit (cat. P0448, 1:1000, DAKO Cytomation, Denmark) or goat anti-mouse (cat. P0447, 1:1000, DAKO Cytomation, Denmark) antibodies for 1 h. Chemiluminescence was detected using the Western Lightning Chemiluminescence system and ImageQuant™ LAS 4000 biomolecular imager. Band intensity in images generated with the LAS 4000 using the same settings were quantified by NIH ImageJ.
# [3] = system: CD31; test: Immunohistochemical staining of rat retina, CD31; type: in vivo; details: lasered rat eyes 21 days after injury
# Text: as §1, §2
smiles,measurement,setting,value
"CCOC(=O)Nc1ccc2c(c1)C(=O)N(CC)c1ccccc1O2 [BT2, (10-ethyl-11-oxo-10,11-dihydro-dibenzo[b,f][1,4]oxazepin-2-yl)-carbamic acid ethyl ester]",inducible expression of VEGF-A165 in retina,[1]; lasered rat eyes 21 days after injury,inhibited the inducible expression of VEGF-A165
same,VEGF-A165 staining gradient relative to the wound,"[1]; lasered rat eyes, 100 μm boxed increments",inhibited by BT2
same,IL-1β-inducible ERK phosphorylation (Western blot),"[2]; 30 μM, 20 ng/ml IL-1β up to 4 h",inhibited
same,"inhibition of IL-1β-inducible ERK phosphorylation, potency relative to PD98059",[2]; dose escalation 1-30 μM,more potently than PD98059
same,inducible CD31 staining in the IPL and INL,[3],inhibited inducible CD31 staining
